From PMC5282547, “The Proline/Arginine Dipeptide from Hexanucleotide Repeat Expanded C9ORF72 Inhibits the Proteasome” (eNeuro, 2017)
Where no end group is shown, it is not given here.

How the values were obtained:
[1] = tested on: ubiquitin-proteasome system; assay: MG-132 flux assay (flux of ubiquitylated substrates through the UPS); type: cell-based, rat
Protocol: MG-132 (Sigma) was used to inhibit proteasomal function. Cells were initially treated with PR20 for a total of 48 h using the method outlined in PR20 treatment for biochemical assays. Four hours prior to lysis, these cells were treated with MG-132 or vehicle. The MG-132 was kept in a stock solution in DMSO. This was added directly to culture to achieve a final concentration of 5 μM. Cells were then lysed in RIPA buffer and immunoblotted for ubiquitin.
(§1) Ubiquitin analysis requires the use of deubiquitinase (DUB) inhibitors. Lysis without these inhibitors runs the risk of degradation of the substrates to be targeted. As such, N-ethylmaleimide (Sigma), a potent DUB inhibitor, was used in the lysis buffer. […] The remainder of the lysis procedure follows Cell lysis.
To test for group differences in the flux assay, a permutation test was used. This is a nonparametric statistical test that was implemented in MATLAB. […] The test first quantifies this by taking the average of each experimental group and then finding the difference of ratios. It then permutes two samples located in two groups randomly, and determines that difference between averages again. This is repeated 50,000 times, and a histogram is plotted. This histogram represents the distribution of random noise in the sample. Since a higher difference in the +MG132/−MG132 ratio is a more “significant” result, the percentage of the random noise produced from 50,000 permutations that is higher in magnitude than the true difference (calculated from un-permuted data) is the p value.
Permutations of a data point in a +MG132 into a group labeled −MG132 (or vice versa) were not allowed. […] Thus, this group difference was not interesting to us.

human proteasomes = assay: Direct interaction with human proteasomes (streptavidin pull-down, anti-HA immunoblot); type: binding; settings: 2 µM HA-tagged peptide, HEK293T extracts with HTBH-tagged β4 subunits, 2 h at 4 °C
Protocol: Whole-cell extracts from a stable HEK293T cell line harboring HTBH-tagged β4 subunits were prepared as in Han et al. (2014) and incubated with HA-tagged PR20 or GR20 peptides (2 µM) 2 h at 4 °C. The resulting proteasome-dipeptide complexes were pull-downed with streptavidin agarose beads (Millipore) for 3 h at 4 °C. Unbound proteasomes in the supernatants were discarded, and the pellets were mixed with 2× SDS sample buffer. Different amounts of samples were resolved by SDS-PAGE/immunoblotting against HA and a proteasome core particle α3 subunit.

phosphorylated AMPK = assay: Immunoblot for mitochondrial dysfunction; type: cell-based, rat; settings: 2 µM, 48 h, immunoblot normalized to actin
Protocol: All plates were incubated with PR20 for 48 h.

[2] = tested on: mixed spinal cord cultures; assay: Cellular accumulation and disposal of HA-tagged DPR (immunoblot of cell lysates, continuous exposure or 2-h pulse-chase)
Protocol: Confluent dishes of astrocyte neuron cocultures at 37°C had volumes equalized to 2 ml of cell culture media each. Approximately 300 μl of media from each dish was removed and pooled with other dishes, PR20 stock solution was added, and the mixture was then added back to the corresponding culture dish, so that each dish contained a final concentration of 2 μM. All plates were incubated with PR20 for 48 h.
Lysis buffer was prepared containing 1% (v/v) protease inhibitor cocktail, 1% (v/v) PMSF, and 1% (v/v) leucine in 1% RIPA buffer solution on ice. Culture dishes were washed once with ice-cold PBS to remove any remaining media. A total of 125 μl (35-mm dish), 150 μl (6-well plate), or 250 μL (60-mm dish) of lysis buffer was added to each plate, and cells were scraped into a cold 1.5-ml tube. Samples were sonicated for 30 s at 20% intensity, placed on a rotator at 4°C for 20 min, and then centrifuged for 15 min at 13,200 rpm. Supernatant was then removed from each tube for further analysis.
We investigated the fate of PR20 in mixed spinal cord cultures through immunoblotting and immunocytochemistry. […] To gain further insight into the kinetics of the observed decrease in PR20 levels in cell lysates over time, we pulsed cells with 2 µM PR20 for 2 h, washed, replaced with fresh media (lacking PR20), and made cell lysates at regular intervals thereafter. […] To more easily follow GR20 by immunoblotting, we applied 10 µM GR20 to cultures and performed the same kinetic analysis as described in Figure 1D.

motor neurons = assay: Motor neuron survival with IU1 co-treatment; type: cell-based, rat; settings: PR20 treatment without IU1, 5 d
Protocol: Days in vitro (DIV)14 mixed spinal cord cultures were exposed to PR20 or GR20 by addition of synthetic peptide to the media one time. Cultures were fixed 5 d later with freshly prepared 4% paraformaldehyde for 20 min, washed extensively with 0.1 M PBS, pH 7.4, and immunostained with SMI32 to identify motor neurons. […] Motor neurons were counted in three nonoverlapping, randomly selected fields on a coverslip using a 5[times objective, and the values from a single coverslip averaged.
For experiments involving IU1, DIV14 cultures were treated with PR20 or its vehicle, and every other day, IU1 (or vehicle) was added to the culture media to achieve a final concentration of 5 µM. At DIV19, cultures were fixed and motor neuron number determined as described above.

[3] = tested on: total ubiquitylated protein; assay: Ubiquitylation assay (total cellular ubiquitin immunoblot); type: cell-based, rat; settings: 2 µM, 2, 4, 8, 16 h; significant at 2, 8 and 16 h
Protocol: The ubiquitylation assay involved acute time point treatments with PR20. 16 h prior to scheduled lysis, two dishes were treated to a final concentration of 2 μM PR20 using the methods described in the PR20 treatment for biochemical assays subsection. This was repeated 8 h prior to lysis, 4 h prior to lysis, and 2 h prior to lysis. Samples were then lysed in RIPA buffer as described in Cell lysis for ubiquitin blots and processed for Western blot analysis.
as §1

Dendra2-LC3 = assay: Autophagic flux assay, optical pulse labeling of Dendra2-LC3; type: cell-based, rat; settings: 2 µM peptide, primary spinal neurons, single-cell optical pulse labeling
Protocol: Primary spinal neurons were dissected from E15 rat pups and cultured at a density of 2.5 × 10^5 cells/ml on a laminin/poly-lysine-coated 96-well plate in motor neuron media. Four days after plating, neurons were transfected with Lipofectamine 2000 (Invitrogen). DNA-Lipofectamine mixtures were incubated with neurons for 20 min followed by rinsing. Neurons were then placed in 100 µL of conditioned media that was collected immediately prior to transfection and half fresh motor neuron media containing 4 µM PR20, resulting in a final concentration of 2 µM PR20.
Optical pulse labeling experiments were performed using an automated microscopy platform previously described by [Arrasate et al. (2004)] and [Barmada et al. (2014)]. A Nikon Eclipse Ti inverted microscope equipped with a PerfectFocus system, 20× objective lens and an Andor iXon3 897 EMCCD camera were used to acquire images. Samples were illuminated with a Sutter Instruments Lamba XL lamp. The microscope and related components were encased in custom-built plexiglass enclosure set to maintain the temperature at 37°C and CO2 at 5%. Semrock GFP and TRITC filters were used for excitation and detection. A Semrock 405-nm long-pass filter was used for photoactivation. Image acquisition and stage movements were accomplished in an automated fashion using µManager and original code written in BeanShell. For all experiments, photoconversion occurred 24 h following transfection. GFP and TRITC images were acquired immediately following activation and subsequently every 2 h for 12 h. Images were acquired in a similar 12-h window starting 48 h after PR20 treatment. Using in-house image analysis scripts, neuronal cell bodies were identified based on their fluorescent intensity and morphology, and a ROI was drawn around the perimeter of each cell at each time. Single-cell TRITC intensity values were recorded and used to fit a first order exponential decay curve for individual neurons and calculate a Dendra2-light chain 3 (LC3) half-life for each cell. […]

[4] = 2 µM in media, continuous exposure

## PRPRPRPRPRPRPRPRPRPRPRPRPRPRPRPRPRPRPRPRYPYDVPDYA [PR20]
[1]; 2 h PR20, ±MG132, n = 6 per group, p = 0.38
  proteasomal flux versus vehicle after 2 h of exposure: no statistically significance
[1]; peptide 48 h (PR20 2 µM), then MG-132 5 µM or vehicle 4 h, permutation test
  proteasomal flux (difference in ubiquitin +/- MG-132) versus vehicle: reduced
Human proteasomes
  association with proteasomes in pull-down: associates with proteasomes
Phosphorylated AMPK
  mitochondrial dysfunction (phosphorylated AMPK) versus vehicle: no statistically significant differences
[2]; [4]
  time of maximum immunoblot signal in cell lysates: 1.0 to 2.0 h
  time point at which immunoblot signal is undetectable: 48 h
[2]; 2 µM in media, continuous exposure, anti-HA immunoblot
  time at which peptide is first detectable in cell lysates: approximately 0.5 h
[2]; 2-h pulse with 2 µM, chase with Baf A1 400 nM
  decrement in peptide abundance with versus without bafilomycin A1 in the chase media: the same
[2]; 2-h pulse with 2 µM, chase with MG132 5 µM
  loss of peptide with MG132 versus vehicle in the chase media: indistinguishable
[2]; 2-h pulse-chase, 2 µM
  lysate fractions with detectable Western blot signal at the 2-h time point: soluble and insoluble fractions
  time point by which signal diminishes to a barely detectable level: 6 h
[2]; immunoblot of mixed spinal cord culture lysates
  half-life of dipeptide in cells: on the orders of hours
Motor neurons
  loss of motor neurons: approximately 50%
[3]
  total ubiquitylated protein levels over time: progressive increase
Dendra2-LC3
  extension of Dendra2-LC3 half-life compared with control: ~5.6 h
